Experimental data from patent US4323648A, “Preparation of Monacolin K” (Sankyo Company Limited, priority 1979, dated 1982).

Assays:
[1] = format: physicochemical
Excerpt: Insoluble in hexane and petroleum ether.
The compound is neutral and is insoluble in neutral or acidic aqueous media. It is, however, converted to an acidic substance by treatment with alkali and this acidic substance is soluble in water. The acidic substance can be extracted with ethyl acetate or chloroform at acid pH values and will revert to Monacolin K on evaporation of the solvent.

HMG-CoA reductase = target: T1, HMG-CoA reductase (Rattus norvegicus, UniProt P51639); assay: biochemical
T1 sequence (P51639 1-887): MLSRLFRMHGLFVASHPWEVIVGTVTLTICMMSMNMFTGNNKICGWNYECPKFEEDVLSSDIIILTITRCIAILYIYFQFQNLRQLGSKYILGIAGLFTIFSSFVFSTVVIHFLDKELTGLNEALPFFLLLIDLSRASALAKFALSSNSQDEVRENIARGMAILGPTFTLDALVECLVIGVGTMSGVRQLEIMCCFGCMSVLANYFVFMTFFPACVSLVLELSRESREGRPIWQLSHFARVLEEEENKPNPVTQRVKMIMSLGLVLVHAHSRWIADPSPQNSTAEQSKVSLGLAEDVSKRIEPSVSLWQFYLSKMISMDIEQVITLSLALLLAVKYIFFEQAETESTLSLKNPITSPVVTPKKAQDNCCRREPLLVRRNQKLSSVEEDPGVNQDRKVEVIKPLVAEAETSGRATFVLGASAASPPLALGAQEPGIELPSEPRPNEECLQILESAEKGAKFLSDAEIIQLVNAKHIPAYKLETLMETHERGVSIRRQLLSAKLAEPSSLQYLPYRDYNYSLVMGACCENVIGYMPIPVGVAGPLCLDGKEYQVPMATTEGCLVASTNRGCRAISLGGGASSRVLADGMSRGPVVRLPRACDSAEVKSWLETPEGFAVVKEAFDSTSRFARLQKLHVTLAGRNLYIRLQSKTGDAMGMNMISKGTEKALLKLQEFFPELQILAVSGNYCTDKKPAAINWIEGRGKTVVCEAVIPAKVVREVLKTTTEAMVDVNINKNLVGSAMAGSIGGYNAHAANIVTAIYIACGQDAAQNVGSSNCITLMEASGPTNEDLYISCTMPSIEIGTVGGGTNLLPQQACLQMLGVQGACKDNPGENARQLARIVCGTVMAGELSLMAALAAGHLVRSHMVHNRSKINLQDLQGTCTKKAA
Excerpt: The value is obtained by the product of the concentrations of enzyme and of inhibitor divided by the concentration of the enzyme-inhibitor complex.

Acute oral toxicity = conditions: in vivo, mouse
Excerpt: Not only does Monacolin K have a valuable inhibitory effect on the biosynthesis of cholesterol, but it also has a very low toxicity, making its use for the treatment of hypercholesteraemia potentially very attractive. Specifically the acute oral toxicity (LD50) of Monacolin K in the mouse is 1 g/kg body weight or more.

[2] = test system: rats of the Wistar Imamichi strain; assay: Reduction of blood and liver cholesterol levels in Triton WR-1339 treated rats; format: in vivo; conditions: rat
Description: The animals used were rats of the Wistar Imamichi strain, each having a body weight of about 300 g. The tests were conducted on groups of rats, each group consisting of 5 animals. Each animal was intravenously injected with 400 mg/kg of Triton WR-1339 (a trade name for a material known to increase the blood cholesterol level) whilst simultaneously administering 10 mg/kg of Monacolin K either orally or intraperitoneally. 20 hours after oral administration or 14 hours after intraperitoneal administration, the rats were sacrificed by bleeding and the blood and livers were collected and their cholesterol levels were determined by conventional means.

[3] = target: cholesterol biosynthesis (crude enzymes from rat liver); assay: In vitro test with rat liver: inhibition of cholesterol biosynthesis from radioactive acetic acid; format: biochemical; conditions: acetic acid reacted with enzyme from rat liver
rabbits = assay: Reduction of blood cholesterol levels in rabbits; format: in vivo; conditions: rabbit, 1 mg/kg oral twice each day
Description: In this test, the ability of Monacolin K to reduce cholesterol levels in rabbit blood is measured. The animals employed should each weigh from 2.5 to 3.0 kg. At the beginning of the tests, blood is collected from a vein in an ear of each rabbit and the cholesterol level in the blood serum is measured by a conventional method. A predetermined quantity of Monacolin K or of a Monacolin K-containing culture broth is then administered orally continuously for from 1 to 5 days and the cholesterol level in the blood serum is measured at stages after the administration. The potency of the Monacolin K or Monacolin K-containing culture medium can be determined quantitatively from the blood cholesterol levels obtained prior to and after administration of the Monacolin K.
The test animals used were rabbits having a body weight of from 2.7. kg to 2.9 kg. Each rabbit was given orally 1 mg/kg of Monacolin K twice each day (morning and evening) continuously for 5 days. Prior to administration and at 3 and 5 days after administration, blood was collected from a vein in the ear and the cholesterol levels in the blood serum were determined.

[4] = 10 mg/kg oral, 20 hours after administration

SMILES	Solubility [1]	Ki (HMG-CoA reductase; competitive with respect to HMG-CoA, read-out: Ki value (inhibition constant))	manner of inhibition of HMG-CoA reductase (HMG-CoA reductase; with respect to HMG-CoA)	LD50 (Acute oral toxicity)	reduction of blood cholesterol level vs control group (Triton WR-1339 alone) ([2]; 10 mg/kg intraperitoneal, 14 hours after administration)	reduction of blood cholesterol level vs control group (Triton WR-1339 alone) [2, 4]	reduction of liver cholesterol level [2, 4]	concentration giving 50% inhibition of cholesterol biosynthesis [3]	blood serum cholesterol level lower than prior to administration (rabbits; at 3 days)	blood serum cholesterol level lower than prior to administration (rabbits; at 5 days)
CCC(C)C(=O)OC1CC(C)C=C2C=CC(C)C(CCC(O)CC(O)CC(=O)O)C21 (stereo not shown) [acidic substance]	soluble									
CCC(C)C(=O)OC1CC(C)C=C2C=CC(C)C(CCC3CC(O)CC(=O)O3)C21 (stereo not shown) [Monacolin K]		0.53 nM	competitive	≥ 1000 mg/kg	23.9%	22.4%	16.7%	0.002 µg/mL	15%	29%
